{
  "source": "patent US20220306737A1",
  "about": "“USE OF HIGH-AFFINITY, LIGAND-BLOCKING, HUMANIZED ANTI-T-CELL IMMUNOGLOBULIN DOMAIN AND MUCIN DOMAIN-3 (TIM-3) IGG4 ANTIBODY FOR THE TREATMENT OF MYELOFIBROSIS” (Novartis AG, priority 2019, published 2022)",
  "key": {"[1]": {"conditions": "cited from earlier work"}, "[2]": {"test_system": "broad panel of 26 kinases", "conditions": "tested at 200 nM; cited from earlier work"}, "[3]": {"molecular_target": "JAK3 (Homo sapiens, UniProt P52333)", "sequence (P52333 whole entry, species assumed)": "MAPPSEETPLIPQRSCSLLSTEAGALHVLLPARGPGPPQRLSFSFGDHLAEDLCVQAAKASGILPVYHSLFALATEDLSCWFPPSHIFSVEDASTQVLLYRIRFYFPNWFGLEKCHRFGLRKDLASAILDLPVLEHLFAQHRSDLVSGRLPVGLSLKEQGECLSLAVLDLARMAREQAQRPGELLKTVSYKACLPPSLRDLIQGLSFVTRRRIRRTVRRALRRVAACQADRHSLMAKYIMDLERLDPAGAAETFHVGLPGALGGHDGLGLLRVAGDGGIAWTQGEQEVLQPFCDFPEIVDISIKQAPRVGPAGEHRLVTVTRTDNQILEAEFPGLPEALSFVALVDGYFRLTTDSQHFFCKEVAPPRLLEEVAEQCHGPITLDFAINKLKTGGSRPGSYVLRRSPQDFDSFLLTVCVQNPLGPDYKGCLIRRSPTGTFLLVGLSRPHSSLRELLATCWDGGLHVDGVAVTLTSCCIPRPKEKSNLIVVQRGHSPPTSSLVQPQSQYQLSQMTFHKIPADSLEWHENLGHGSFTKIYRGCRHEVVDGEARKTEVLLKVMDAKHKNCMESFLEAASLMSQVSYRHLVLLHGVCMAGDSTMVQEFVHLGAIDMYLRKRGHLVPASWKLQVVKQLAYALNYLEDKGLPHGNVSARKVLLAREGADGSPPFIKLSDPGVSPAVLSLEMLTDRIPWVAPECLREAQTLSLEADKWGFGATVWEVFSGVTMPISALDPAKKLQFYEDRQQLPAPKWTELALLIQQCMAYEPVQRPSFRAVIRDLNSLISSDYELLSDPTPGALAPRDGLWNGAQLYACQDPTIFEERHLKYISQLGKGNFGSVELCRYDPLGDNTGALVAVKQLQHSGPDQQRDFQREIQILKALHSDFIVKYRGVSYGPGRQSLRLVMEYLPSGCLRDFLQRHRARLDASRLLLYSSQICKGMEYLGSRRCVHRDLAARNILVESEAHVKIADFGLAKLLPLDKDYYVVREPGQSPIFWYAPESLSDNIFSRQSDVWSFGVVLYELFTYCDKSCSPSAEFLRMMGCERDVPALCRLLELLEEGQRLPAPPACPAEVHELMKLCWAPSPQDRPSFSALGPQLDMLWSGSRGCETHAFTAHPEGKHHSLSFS", "conditions": "at clinically relevant concentrations; cited from earlier work"}, "[4]": {"assay": "MBG453 phase I/II development, impact on hematopoiesis", "type": "in vivo, human"}, "[5]": {"assay": "CMBG453X2101 clinical study in advanced solid tumors, safety", "type": "in vivo, human", "conditions": "any dose up to 1200 mg IV Q2W or Q4W", "method": "(§1) In this study, the selection of the MBG453 dose and regimen is based on the currently available clinical safety, efficacy, PK and PK/PD modeling information from the CMBG453X2101 in advanced solid tumors and CPDR001X2105 in AML and MDS trials for MBG453. For solid tumor subjects, both 800 mg IV Q4W and 400 mg IV every 2 weeks (Q2W) are predicted to give sustained target (TIM-3) occupancy of 90% in tumor in >90% of subjects. […] MBG453 single agent is also being evaluated in AML/MDS subjects in the CPDR001X2105 study with Q4W and Q2W regimens. The recommended dose in AML/MDS has not yet been determined, however it is not expected to be different from solid tumors, based on preliminary PK and safety data."}, "[6]": {"assay": "CPDR001X2105 clinical study in AML/MDS subjects, tolerability", "type": "in vivo, human", "conditions": "400 mg IV Q2W and 800 mg IV Q4W", "method": "as §1"}},
  "note": "Entries after “also recorded” stand apart in the source; their conditions may differ.",
  "data": [
    {"compound": "N#CC[C@H](C1CCCC1)n1cc(-c2ncnc3[nH]ccc23)cn1", "note": "[Ruxolitinib, (R)-3-(4-(7H-pyrrolo[2,3-d]pyrimidin-4-yl)-1H-pyrazol-1-yl)-3-cyclopentylpropanenitrile]", "values": [
      {"measurement": "effect on anemia", "setting": "[1]; MF patients", "value": "does not improve"},
      {"measurement": "effect on splenomegaly (spleen size) and constitutional symptoms of MF", "setting": "[1]; MF patients", "value": "highly effective; also recorded: improvements"},
      {"measurement": "hematoxicity", "setting": "[1]; human, in vivo", "value": "partial transient hematoxicity"},
      {"measurement": "inhibition of a broad panel of 26 kinases", "setting": "[2]", "value": "< 30", "unit": "%"},
      {"measurement": "inhibition of JAK3", "setting": "[3]", "value": "does not inhibit"}
    ]},
    {"compound": "MBG453: anti-TIM-3 antibody disclosed in US Patent Application Publication No. 2015/0218274", "values": [
      {"measurement": "impact on hematopoiesis", "setting": "[4]", "value": "has not been found to have a negative impact on hematopoiesis"},
      {"measurement": "safety signal", "setting": "[5]", "value": "No significant safety signal"},
      {"measurement": "tolerability", "setting": "[6]", "value": "well tolerated"}
    ]}
  ]
}
